Legend:
Mus musculus [1] = assay: In vivo antithrombotic activity in Swiss mice was determined when the compound was administered at 30 umol/kg orally 1 hour prior to challenge; assay type: functional
Mus musculus [2] = assay: In vivo increase in the bleeding time was determined when administered at 30 umol/kg orally 1 hour prior to challenge; assay type: functional

Structure (SMILES) | Protection (Mus musculus [1]) [%] | Increase (Mus musculus [2]) [%]
NCCCCC(C(N)=O)N(Cc1ccc([N+](=O)[O-])cc1)Cc1cc(-c2ccccc2)on1 (configuration not stated) | 30 | 
NC(=O)C(Cc1c[nH]cn1)N(Cc1ccccc1)Cc1cc(-c2ccccc2)on1 (configuration not stated) | 50 | 81
Cc1ccc(-c2cc(CN(Cc3ccccc3)C(Cc3ccc(O)cc3)C(N)=O)no2)cc1 (configuration not stated) | 60 | 20
NC(=O)C(Cc1ccc(O)cc1)N(Cc1ccc(Br)cc1)Cc1cc(-c2ccccc2)on1 (configuration not stated) | 20 | 
CC(C)=CCC(C(N)=O)N(Cc1ccccc1)Cc1cc(-c2ccccc2)on1 (configuration not stated) | 30 | 
Cc1ccc(-c2cc(CN(Cc3cccc([N+](=O)[O-])c3)C(Cc3c[nH]cn3)C(N)=O)no2)cc1 (configuration not stated) | 60 | 40
NC(=O)C(Cc1ccccc1)N(Cc1ccccc1)Cc1cc(-c2ccccc2)on1 (configuration not stated) | 30 | 
N#Cc1ccc(CN(Cc2cc(-c3ccccc3Cl)on2)C(Cc2ccc(O)cc2)C(N)=O)cc1 (configuration not stated) | 40 | 
Cc1ccc(-c2cc(CN(Cc3ccccc3)C(CCCN=C(N)N)C(N)=O)no2)cc1 (configuration not stated) | 10 | 
Cc1ccc(-c2cc(CN(Cc3cccc(C)c3)C(Cc3ccccc3)C(N)=O)no2)cc1 (configuration not stated) | 50 | 0
Cc1ccc(CN(Cc2cc(-c3ccccc3)on2)C(Cc2c[nH]cn2)C(N)=O)cc1 (configuration not stated) | 40 | 
NC(=O)CCC(C(N)=O)N(Cc1ccc(Br)cc1)Cc1cc(-c2ccccc2Cl)on1 (configuration not stated) | 20 | 
NC(=O)C(Cc1ccccc1)N(Cc1ccccc1)Cc1cc(-c2ccccc2Cl)on1 (configuration not stated) | 30 | 
N#Cc1ccc(CN(Cc2cc(-c3ccccc3)on2)C(CCC(N)=O)C(N)=O)cc1 (configuration not stated) | 70 | 62
NC(=O)C(CO)N(Cc1ccccc1)Cc1cc(-c2ccccc2)on1 (configuration not stated) | 60 | 58
Cc1ccc(-c2cc(CN(CC(N)=O)Cc3ccccc3)no2)cc1 | 20 | 
NC(=O)C(Cc1ccccc1)N(Cc1ccc(Br)cc1)Cc1cc(-c2ccccc2)on1 (configuration not stated) | 20 | 
Cc1ccc(-c2cc(CN(Cc3ccc(Br)cc3)C(CCCN=C(N)N)C(N)=O)no2)cc1 (configuration not stated) | 40 | 
Cc1ccc(-c2cc(CN(Cc3ccc(C#N)cc3)C(CCCCN)C(N)=O)no2)cc1 (configuration not stated) | 40 | 
Cc1ccc(-c2cc(CN(Cc3ccc(C#N)cc3)C(Cc3ccc(O)cc3)C(N)=O)no2)cc1 (configuration not stated) | 20 | 
NC(=O)C(Cc1ccccc1)N(Cc1ccc([N+](=O)[O-])cc1)Cc1cc(-c2ccccc2Cl)on1 (configuration not stated) | 20 | 
N#Cc1ccc(CN(Cc2cc(-c3ccccc3Cl)on2)C(Cc2ccccc2)C(N)=O)cc1 (configuration not stated) | 50 | 0
N=C(N)NCCCC(C(N)=O)N(Cc1ccc(Br)cc1)Cc1cc(-c2ccccc2)on1 (configuration not stated) | 80 | 25

Structure (SMILES) | Protection (Mus musculus [1]) [%] | Increase (Mus musculus [2]) [%]
Cc1ccc(-c2cc(CN(Cc3ccccc3)C(CCCCN)C(N)=O)no2)cc1 (configuration not stated) | 40 | 
N#Cc1ccc(CN(Cc2cc(-c3ccccc3Cl)on2)C(CO)C(N)=O)cc1 (configuration not stated) | 10 | 
CC(C)=CCC(C(N)=O)N(Cc1ccc(C#N)cc1)Cc1cc(-c2ccccc2)on1 (configuration not stated) | 20 | 
Cc1ccc(-c2cc(CN(Cc3ccccc3)C(CO)C(N)=O)no2)cc1 (configuration not stated) | 60 | 79
NC(=O)C(Cc1ccc(O)cc1)N(Cc1ccc(Br)cc1)Cc1cc(-c2ccccc2Cl)on1 (configuration not stated) | 60 | 
Cc1ccc(-c2cc(CN(Cc3cccc([N+](=O)[O-])c3)C(CCCCN)C(N)=O)no2)cc1 (configuration not stated) | 20 | 
Cc1ccc(-c2cc(CN(Cc3cccc(Br)c3)C(CCCCN)C(N)=O)no2)cc1 (configuration not stated) | 40 | 
N=C(N)NCCCC(C(N)=O)N(Cc1ccccc1)Cc1cc(-c2ccccc2Cl)on1 (configuration not stated) | 40 | 
N#Cc1ccc(CN(Cc2cc(-c3ccccc3)on2)C(CO)C(N)=O)cc1 (configuration not stated) | 30 | 
NC(=O)C(CO)N(Cc1ccc(Br)cc1)Cc1cc(-c2ccccc2Cl)on1 (configuration not stated) | 70 | 50
Cc1ccc(-c2cc(CN(Cc3ccc(C#N)cc3)C(CO)C(N)=O)no2)cc1 (configuration not stated) | 60 | 41
CC(C)=CCC(C(N)=O)N(Cc1ccc(C)cc1)Cc1cc(-c2ccccc2)on1 (configuration not stated) | 20 | 
N#Cc1ccc(CN(Cc2cc(-c3ccccc3)on2)C(Cc2c[nH]cn2)C(N)=O)cc1 (configuration not stated) | 50 | 80
NC(=O)C(Cc1c[nH]cn1)N(Cc1ccc([N+](=O)[O-])cc1)Cc1cc(-c2ccccc2)on1 (configuration not stated) | 60 | 30
Cc1ccc(CN(Cc2cc(-c3ccccc3)on2)C(CCCCN)C(N)=O)cc1 (configuration not stated) | 20 | 
N#Cc1ccc(CN(Cc2cc(-c3ccccc3)on2)C(CCCNC(=N)N)C(N)=O)cc1 (configuration not stated) | 50 | 31
N#Cc1ccc(CN(Cc2cc(-c3ccccc3Cl)on2)C(CCCNC(=N)N)C(N)=O)cc1 (configuration not stated) | 90 | 87.5
NC(=O)C(Cc1c[nH]cn1)N(Cc1cccc(Br)c1)Cc1cc(-c2ccccc2)on1 (configuration not stated) | 40 | 
Cc1ccc(-c2cc(CN(Cc3cccc(Br)c3)C(Cc3c[nH]cn3)C(N)=O)no2)cc1 (configuration not stated) | 10 | 
NC(=O)C(CO)N(Cc1ccc(Br)cc1)Cc1cc(-c2ccccc2)on1 (configuration not stated) | 30 | 
Cc1ccc(-c2cc(CN(Cc3ccc(C#N)cc3)C(CCCN=C(N)N)C(N)=O)no2)cc1 (configuration not stated) | 40 | 
CC(C)=CCC(C(N)=O)N(Cc1cccc(C)c1)Cc1cc(-c2ccc(C)cc2)on1 (configuration not stated) | 60 | 
CC(=O)Oc1ccccc1C(=O)O [ASPIRIN] | 40 | 110

Source: ChEMBL document CHEMBL1135176, “Combinatorial synthesis and biological evaluation of isoxazole-based libraries as antithrombotic agents” (2002)
